Assay results as given in US20090264342A1, “COMPOSITIONS AND METHODS FOR ANTIBIOTIC POTENTIATION AND DRUG DISCOVERY” (priority 2006, published 2009).

Experiments:
[1] = molecular target: T1, E. Coli RecA protein (Escherichia coli, UniProt P0A7G6); test: RecA ATPase activity, in vitro luciferase assay; assay type: biochemical; conditions: luciferase assay screen, FIG. 14
T1 construct: purchased New England Biolabs
Experimental: The assay measures the amount of ATPase (adenosine triphosphate (ATP)-adenosine diphosphate (ADP)) activity catalyzed by E. Coli RecA protein. In the assay, recA is incubated in reaction buffer with DNA, ATP and compounds of interest for a measured amount of time. The quantity of ATP remaining after the RecA reaction is quantitated using a subsequent luciferase assay. […] Details of the assay are provided below.
Materials. Kingase glo plus, adenosine triphosphate (ATP), Adenosine 5′-O-(3-thiotriphosphate), and 384 well plates, white were obtained from Fisher; and M13 mp18 Single-stranded DNA, RecA Protein and T4 Polynucleotide Kinase Reaction Buffer=PNK were obtained from New England Biolabs. PNK contained 70 mM Tris-CL pH 7.5, 10 mM MgCl2 and 5 mM DTT.
Assay Procedure. Final reaction mixture contains: 0.5 μL of M13 single stranded DNA (250 μg/mL); 1.0 μL of 10×PHK buffer; 0.25 μL of RecA (2 mg/mL); 0.25 μL of 1 mM ATP; 0.25 μL of test compound in DMSO; and […] of H2O.
Test compounds are incubated at room temperature in the presence of RecA protein and DNA prior to addition of ATP. This can be achieved by the preparation of two mixes, as indicated below. Desirably, both a no-DNA and a DNA/DMSO-only (i.e., no test compound) control were included.
The following steps are then performed: (1) Add 7.75 μL of mix 1 to the well of a 384 well plate; (2) Add 0.5 μL of the compound of interest; (3) Incubate at room temperature for 5 minutes; (4) Add 2.5 μL of the ATP mix. Incubate at room temperature for 30 minutes; (5) Add 12.5 μL of Promega Kinase glo plus; (6) Incubate at room temperature for 10 minutes or more; and (7) Measure luminescence of the reaction.
Tested compounds were obtained from Boston University (1205 compounds from CMLD diversity library, available from Dr. Scott Schauss), IndoFine (66 compounds based on flavone structure), ChemdiV (48 compounds known to be ATPase inhibitors and 720 compounds structurally related to CB101 (described, for example, in U.S. Ser. No. 60/662,038), and Asinex. Five (5) tested compounds were bisfiavones and 28 were predicted, based on structural modeling (see, for example, Example 31) to dock with Rec A. Many of the compounds are lipophilic, natural-product-like compounds. Others are flavones, bisflavones, flavonoids, coumarins, and/or heterocyclic compounds.
Percent inhibition is calculated according to the following equation: […]

[2] = tested on: wild type E. coli; test: Growth of wild type E. coli in the presence of quinolone (OD600); assay type: cell-based; conditions: 0.1 μg/mL of Cipro (sublethal concentration)
Text: Each deletion strain was constructed by replacing the chromosomal copy of the relevant gene in a wild type E. coli strain (K-12) with a selectable antibiotic resistance gene, essentially as described, to create a precise gene deletion (Datsenko, K. A. and Wanner, B. L., “One-step inactivation of chromosomal genes in Escherichia coli K-12 using PCR products”, Proc Natl Acad Sci USA, 97, 6640-6645, […]); Baba, T., Ara, T., Okumura, Y., iki Hasegawa, M., Takai, Y., Baba, M., Oshima, T., Tomita, M., Wanner, B. and Mori, H. (2003) Systematic construction of single gene deletion mutants in Escherichia coli K-12 (in preparation) and see also the web site at ecoli.aist-nara.ac.jp/gb5/Resources/deletion/deletion.html).
For each mutant, the ratio of growth of the mutant in the presence of a sublethal concentration of quinolone to growth of the mutant in the absence of quinolone was calculated after 12 hours of growth at 37° C., based on OD600 measurements. […]

[3] = tested on: S. aureus cells; test: Mutation/resistance assay, resistance to ciprofloxacin; assay type: cell-based; conditions: 4×MIC ciprofloxacin with (+) or without (−) 25 μg/mL hinokiflavone
Experimental: This assay measures the rate at which mutant cells arise in the presence of an antibiotic agent. Cells are grown in the presence of antibiotic agent at a concentration above (generally well above, e.g., 4× or 8×) its MIC, and further in the presence or absence of a test agent (that may inhibit or enhance mutation).
Every 24 hours, an aliquot is removed from the culture and is diluted so that the antibiotic agent is no longer present at a concentration above its MIC (e.g., so that the antibiotic agent is present at 0.5×MIC or less). These aliquoted samples are then assayed to determine whether they can grow in the presence of the antibiotic agent. Specifically, when growth is observed in the presence of antibiotic agent at a concentration that is 4×MIC, then resistance is said to have developed. Test compounds can therefore be assayed to assess whether or not they can reduce the incidence of resistance (e.g., by inhibiting mutation).
These aliquoted samples were then assayed to determine whether they can grow in the presence of ciprofloxacin. […]

[4] = tested on: E. coli MG1655; test: Hydroxyl radical formation (HPF dye, flow cytometry) in E. coli; assay type: cell-based; conditions: E. coli; 250 ng/mL norfloxacin, 5 μg/mL ampicillin, 5 μg/mL kanamycin; bacteriostatic drugs; 3 hours after addition
Experimental: (§1) Growth Conditions. In the experiments, the growth and survival of untreated exponential phase E. coli, or S. aureus, were compared to cultured treated with antibiotics at the above concentrations. E. coli cultures were treated with norfloxacin, kanamycin, ampicillin, rifamycin SV, chloramphenical, tetracycline, erythromycin, or spectinomycin, where appropriate, S. aureus cultures were treated with norfloxacin, vancomycin or chloramphenical, where appropriate.
(§2) Hydroxyl radical and DNA damage sensor experiments using the flow cytometer. To monitor the occurrence of DNA damage, the engineered DNA damage sensor was used, which responds to auto-cleavage of LexA by activating expression of gfpmut3b. All the drug treatments and the no-drug controls were collected with both the kanamycin- and ampicillin-resistant version of the plasmid, with the exception of the ampicillin treatment (kanamycin plasmid only) and the kanamycin treatment (ampicillin plasmid only). All data were collected using a Becton Dickinson FACSCalibur flow cytometer (Becton Dickinson, San Jose, Calif.) with a 488-nm argon laser and a 515- to 545-nm emission filter (FL1) at low flow rate. The following PMT voltage settings were used: E00 (FSC), 360 (SSC) and 700 (FL1). To detect hydroxyl radical formation, the fluorescent reporter dye, 3′-(p-hydroxyphenyl) fluorescein (HPF, Invitrogen, Carlsbad, Calif.) was used at a concentration of 5 μM (1:1000) dilution), which is oxidized by hydroxyl radicals with high specificity. The following PMT voltage settings were used: E00 (FSC), 360 (SSC) and 825 (FL 1). Calibrite beads (Becton Dickinson) were used for instrument calibration.
Flow data were processed and analyzed with MATLAB (MathWorks, Natick, Mass.) to construct figures. At least 50,000 cells were collected for each sample. In all experiments, cells were grown as described above. Samples were taken immediately before addition of drug (time zero), then every hour for 3 hours. At each timepoint, approximately […] were collected, washed once and resuspended in filtered 1×PBS, pH 7.2 (Fisher Scientific), and fluorescence was measured on the flow cytometer.
In the present study, the Applicants chose to investigate whether hydroxyl radical formation also contributes to antibiotic-induced cell death in bacteria. Using the dye hydroxyphenyl fluorescein, HPF, which is oxidized by hydroxyl radicals with high specificity, hydroxyl radical formation was first observed over a range of hydrogen peroxide concentrations known to induce hydroxyl radicals through the reduction of hydrogen peroxide by ferrous iron. In this manner, it was possible to establish the scale of hydroxyl radical formation detectable using this dye via flow cytometry.

[5] = molecular target: E. coli H+ATPase (Escherichia coli, UniProt P0AB98+P68699); conditions: cited from earlier work
[6] = tested on: wild-type strain of S. aureus; test: Hydroxyl radical formation (HPF dye, flow cytometry) in S. aureus; assay type: cell-based
Experimental: For work with S. aureus, a Staphylococcus aureus subspecies aureus Rosenback strain was used that was obtained from ATCC (29740).
as §1, §2

T1 sequence (P0A7G6 2-353): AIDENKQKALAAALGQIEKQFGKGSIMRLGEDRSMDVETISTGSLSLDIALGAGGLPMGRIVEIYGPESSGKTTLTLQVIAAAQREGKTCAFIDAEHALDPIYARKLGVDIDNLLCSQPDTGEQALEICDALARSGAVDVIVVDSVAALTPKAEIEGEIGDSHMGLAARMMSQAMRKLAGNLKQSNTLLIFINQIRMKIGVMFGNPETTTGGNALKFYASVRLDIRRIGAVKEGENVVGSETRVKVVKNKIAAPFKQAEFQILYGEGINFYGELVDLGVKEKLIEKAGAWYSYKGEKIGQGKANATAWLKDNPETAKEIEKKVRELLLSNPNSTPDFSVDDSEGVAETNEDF

## O=c1cc(-c2ccc(O)cc2)oc2cc(O)c(O)c(O)c12 [6-hydroxy-apigenin]
[1]
  activity as inhibitor of RecA ATPase (in words): particularly active

## O=C(O)c1cn(C2CC2)c2cc(N3CCNCC3)c(F)cc2c1=O [Cipro, ciprofloxacin]
[2]
  growth of wild type E. coli in the presence of Cipro: able to grow
[3]; culture grown 0 days
  Number of Wells in which Growth Observed in Presence of Ciprofloxacin at 4x MIC: 0
[3]; culture grown 1 day
  Number of Wells in which Growth Observed in Presence of Ciprofloxacin at 4x MIC: 1
[3]; culture grown 5 days
  Number of Wells in which Growth Observed in Presence of Ciprofloxacin at 4x MIC: 2
[3]; culture grown 6 days
  Number of Wells in which Growth Observed in Presence of Ciprofloxacin at 4x MIC: 2
[3]; culture grown 7 days
  Number of Wells in which Growth Observed in Presence of Ciprofloxacin at 4x MIC: 3
[3]; culture grown 10 days
  Number of Wells in which Growth Observed in Presence of Ciprofloxacin at 4x MIC: 11

## O=c1c(O)c(-c2ccc(O)c(O)c2)oc2cc(O)c(O)c(O)c12 [quercetagetin]
[1]
  activity as inhibitor of RecA ATPase (in words): particularly active

## CC[C@H]1OC(=O)[C@H](C)[C@@H](O[C@H]2C[C@@](C)(OC)[C@@H](O)[C@H](C)O2)[C@H](C)[C@@H](O[C@@H]2O[C@H](C)C[C@H](N(C)C)[C@H]2O)[C@](C)(O)C[C@@H](C)C(=O)[C@H](C)[C@@H](O)[C@]1(C)O [erythromycin]
[4]
  hydroxyl radical formation: did not stimulate hydroxyl radical production

## COc1cc(-c2oc3cc(O)cc(O)c3c(=O)c2O)ccc1O [isorhamnetin]
[1]
  activity as inhibitor of RecA ATPase (in words): particularly active

## O=c1c(O)c(-c2ccc(O)cc2)oc2cc(O)ccc12 [3,7,4′-trihydroxyflavone]
[1]
  activity as inhibitor of RecA ATPase (in words): particularly active

## CC[C@H]1/C=C/C=C/C[C@@H](C)[C@H](O)[C@@](C)(O)C(=O)[C@@H](C)[C@H](O)[C@@H](C)C(=O)[C@@H](C)[C@H](O)[C@@H](C)/C=C/C(=O)O[C@@H]2[C@H](C)[C@H](CC1)O[C@]1(CC[C@H](C)[C@H](C[C@@H](C)O)O1)[C@H]2C [oligomycin]
[5]
  inhibition of ATP-driven proton transport and ATP hydrolysis: weakly inhibited

## O=c1c(O)c(-c2ccc(O)cc2O)oc2cc(O)cc(O)c12 [morin]
[1]
  activity as inhibitor of RecA ATPase (in words): particularly active

## CO[C@H]1/C=C/O[C@@]2(C)Oc3c(C)c([O-])c4c(O)c(cc(O)c4c3C2=O)NC(=O)/C(C)=C\C=C\[C@H](C)[C@H](O)[C@@H](C)[C@@H](O)[C@@H](C)[C@H](OC(C)=O)[C@@H]1C.[Na+] [rifamycin SV]
[4]
  hydroxyl radical formation: did not stimulate hydroxyl radical production

## O=c1cc(-c2ccc(O)cc2)oc2cc(O)cc(O)c12 [apigenin]
[1]
  activity as inhibitor of RecA ATPase (in words): particularly active

## O=C(N[C@H](CO)[C@H](O)c1ccc([N+](=O)[O-])cc1)C(Cl)Cl [chloramphenicol]
[4]
  hydroxyl radical formation: did not stimulate hydroxyl radical production
[6]; norfloxacin, chloramphenical
  hydroxyl radical formation: hydroxyl formation was not observed

## O=C(c1ccc(O)c(O)c1)c1c(O)cc(O)cc1O [maclurin]
[1]
  activity as inhibitor of RecA ATPase (in words): particularly active

## O.O.O=c1c(O)c(-c2ccc(O)c(O)c2)oc2cc(O)cc(O)c12 [quercetin dihydrate]
[1]
  activity as inhibitor of RecA ATPase (in words): particularly active

## O=c1cc(-c2ccc(O)cc2)oc2cc(O[C@@H]3O[C@H](CO)[C@@H](O)[C@H](O)[C@H]3O)cc(O)c12 [apigenin-7-O-glucoside]
[1]
  activity as inhibitor of RecA ATPase (in words): particularly active

## O=c1c(O)cc([C@H]2Oc3cc(O)cc(O)c3C[C@H]2O)cc2c([C@H]3Oc4cc(O)cc(O)c4C[C@H]3O)cc(O)c(O)c12 [theaflavin]
[1]
  activity as inhibitor of RecA ATPase (in words): particularly active

## CN[C@H](CC(C)C)C(=O)N[C@H]1C(=O)N[C@@H](CC(N)=O)C(=O)N[C@H]2C(=O)N[C@H]3C(=O)N[C@H](C(=O)N[C@H](C(=O)O)c4cc(O)cc(O)c4-c4cc3ccc4O)[C@H](O)c3ccc(c(Cl)c3)Oc3cc2cc(c3O[C@@H]2O[C@H](CO)[C@@H](O)[C@H](O)[C@H]2O[C@H]2C[C@](C)(N)[C@H](O)[C@H](C)O2)Oc2ccc(cc2Cl)[C@H]1O [vancomycin]
[6]; lethal concentration (5 μg/mL)
  hydroxyl radical formation: increase in hydroxyl radical production
[6]; sub-lethal concentration (1 μg/mL)
  hydroxyl radical formation: hydroxyl formation was not observed

## O=c1c(O)c(-c2ccc(O)cc2)oc2cc(O)cc(O)c12 [kaempferol]
[1]
  activity as inhibitor of RecA ATPase (in words): particularly active

## O=c1c(O)c(-c2ccc(O)c(O)c2)oc2cc(O)ccc12 [fisetin]
[1]
  activity as inhibitor of RecA ATPase (in words): particularly active
